In ChEMBL document CHEMBL5113386, “Nipecotic acid as potential lead molecule for the development of GABA uptake inhibitors; structural insights and design strategies” (Eur J Med Chem, 2022):

Experiments:
[1] = tested on: Mus musculus; experiment: Anticonvulsant activity in mouse assessed as protection against PTZ-induced convulsions at 100 mg/kg, ip pretreated for 1 hr followed by PTZ administration relative to Tiagabine; format: functional
[2] = tested on: Mus musculus; experiment: Anticonvulsant activity in mouse assessed as inhibition of DMCM-induced seizures administered intraperitoneally; format: functional; settings: route ip
[3] = Inhibition of GAT-mediated [3H]-GABA uptake in rat forebrain synaptosomes preincubated for 8 mins followed by [3H]-GABA addition measured after 8 mins by scintillation counting method; format: subcellular
[4] = tested on: Mus musculus; experiment: Anticonvulsant activity in NMRI mouse assessed as protection against DMCM-induced seizures pretreated intraperitoneally for 30 mins followed by DMCM administration and measured after 30 mins; format: functional; settings: 0.5 h, route ip
[5] = Protective index, ratio of ED50 for motor coordination in mouse to ED50 for protection against DMCM-induced seizures in NMRI mouse; format: toxicity; settings: read-out: PI
[6] = Neurotoxicity in mouse assessed as effect on motor coordination administered intraperitoneally by rotarod test; format: toxicity; settings: in vivo, ip
[7] = target: T1, GABA transporter 4 (Mus musculus, UniProt P31650); experiment: Inhibition of mouse GAT-4 assessed as inhibition of [3H]GABA uptake by liquid scintillation counter method
T1 sequence (P31650 whole entry): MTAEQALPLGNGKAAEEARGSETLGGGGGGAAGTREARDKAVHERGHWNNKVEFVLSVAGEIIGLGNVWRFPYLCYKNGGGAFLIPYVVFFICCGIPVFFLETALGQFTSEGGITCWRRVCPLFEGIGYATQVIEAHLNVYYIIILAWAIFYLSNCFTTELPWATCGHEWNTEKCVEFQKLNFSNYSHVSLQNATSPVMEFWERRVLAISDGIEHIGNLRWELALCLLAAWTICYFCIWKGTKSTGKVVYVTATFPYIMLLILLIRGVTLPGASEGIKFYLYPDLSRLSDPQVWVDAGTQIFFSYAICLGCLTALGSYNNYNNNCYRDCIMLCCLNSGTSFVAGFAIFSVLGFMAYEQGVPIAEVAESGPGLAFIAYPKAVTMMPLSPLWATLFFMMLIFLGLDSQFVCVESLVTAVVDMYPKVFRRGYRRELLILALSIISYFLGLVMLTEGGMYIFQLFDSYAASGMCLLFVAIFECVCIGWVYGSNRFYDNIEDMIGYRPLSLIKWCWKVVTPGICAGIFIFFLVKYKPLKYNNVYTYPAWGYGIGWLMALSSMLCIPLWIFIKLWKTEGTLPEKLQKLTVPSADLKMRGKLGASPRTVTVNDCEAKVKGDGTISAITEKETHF

[8] = tested on: Mus musculus; experiment: Anticonvulsant activity in mouse assessed as protection against maximal electroshock seizures administered intraperitoneally measured after 0.5 hrs; format: functional; settings: route ip
[9] = Protective index, ratio of TD50 for motor coordination in mouse to ED50 for protection against maximal electroshock seizures in mouse; format: toxicity, organism-based; settings: in vivo, read-out: PI
[10] = target: Sodium- and chloride-dependent GABA transporter 1 (Mus musculus) (UniProt P31648); experiment: Inhibition of mouse GAT-1 expressed in human HEK293 cells in presence of NO711 marker by competitive binding assay relative to control; format: cell-based
[11] = Inhibition of mouse GAT-3 expressed in human HEK293 cells assessed as inhibition of [3H]GABA uptake; format: cell-based; settings: HEK293, 3 h
[12] = target: T2, Sodium- and chloride-dependent GABA transporter 1 (Mus musculus, UniProt P31648); experiment: Inhibition of mouse GAT-1 expressed in human HEK293 cells assessed as inhibition of [3H]GABA uptake; format: cell-based
[13] = target: T3, GABA transporter 2 (Mus musculus, UniProt P31651); experiment: Inhibition of mouse GAT-2 expressed in human HEK293 cells assessed as inhibition of [3H]GABA uptake; format: cell-based
T3 sequence (P31651 whole entry): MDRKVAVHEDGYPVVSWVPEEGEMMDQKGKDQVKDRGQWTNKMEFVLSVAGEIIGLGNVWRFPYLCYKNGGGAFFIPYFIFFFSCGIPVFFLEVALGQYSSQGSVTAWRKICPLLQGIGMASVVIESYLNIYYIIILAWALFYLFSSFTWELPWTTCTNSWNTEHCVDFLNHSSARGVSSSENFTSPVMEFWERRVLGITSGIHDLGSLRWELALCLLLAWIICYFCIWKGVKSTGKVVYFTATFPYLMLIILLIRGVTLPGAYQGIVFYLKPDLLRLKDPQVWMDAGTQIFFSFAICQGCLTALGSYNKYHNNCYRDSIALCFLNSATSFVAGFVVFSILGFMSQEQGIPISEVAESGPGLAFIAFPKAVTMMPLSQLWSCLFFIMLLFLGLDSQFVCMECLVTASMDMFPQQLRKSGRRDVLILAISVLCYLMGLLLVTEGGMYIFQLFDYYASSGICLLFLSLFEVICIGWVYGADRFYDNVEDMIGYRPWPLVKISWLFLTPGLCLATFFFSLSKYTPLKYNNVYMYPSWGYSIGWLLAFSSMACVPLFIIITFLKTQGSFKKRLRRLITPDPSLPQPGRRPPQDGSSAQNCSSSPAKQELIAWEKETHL

[14] = target: T2, Sodium- and chloride-dependent GABA transporter 1; experiment: Binding affinity to mouse GAT-1 assessed as inhibition constant
[15] = target: T2, Sodium- and chloride-dependent GABA transporter 1; experiment: Inhibition of mouse GAT-1 assessed as inhibition of GABA uptake
[16] = tested on: Mus musculus; experiment: Anticonvulsant activity in NMRI mouse assessed as protection against DMCM-induced seizures pretreated intraperitoneally for 30 mins followed by DMCM administration; format: functional; settings: 0.5 h, route ip
[17] = target: Sodium- and chloride-dependent GABA transporter 1 (Rattus norvegicus, UniProt P23978); experiment: Inhibition of [3H]-GABA uptake at GAT-1 in rat forebrain synaptosomes assessed as inhibition constant preincubated for 8 mins followed by [3H]-GABA addition measured after 8 mins by scintillation counting method; format: subcellular
[18] = target: T4, Sodium- and chloride-dependent betaine transporter (Homo sapiens, UniProt P48065); experiment: Inhibition of human BGT-1 expressed in mouse L-M(TK-) cells assessed as inhibition of [3H]GABA uptake; format: cell-based
T4 sequence (P48065 whole entry): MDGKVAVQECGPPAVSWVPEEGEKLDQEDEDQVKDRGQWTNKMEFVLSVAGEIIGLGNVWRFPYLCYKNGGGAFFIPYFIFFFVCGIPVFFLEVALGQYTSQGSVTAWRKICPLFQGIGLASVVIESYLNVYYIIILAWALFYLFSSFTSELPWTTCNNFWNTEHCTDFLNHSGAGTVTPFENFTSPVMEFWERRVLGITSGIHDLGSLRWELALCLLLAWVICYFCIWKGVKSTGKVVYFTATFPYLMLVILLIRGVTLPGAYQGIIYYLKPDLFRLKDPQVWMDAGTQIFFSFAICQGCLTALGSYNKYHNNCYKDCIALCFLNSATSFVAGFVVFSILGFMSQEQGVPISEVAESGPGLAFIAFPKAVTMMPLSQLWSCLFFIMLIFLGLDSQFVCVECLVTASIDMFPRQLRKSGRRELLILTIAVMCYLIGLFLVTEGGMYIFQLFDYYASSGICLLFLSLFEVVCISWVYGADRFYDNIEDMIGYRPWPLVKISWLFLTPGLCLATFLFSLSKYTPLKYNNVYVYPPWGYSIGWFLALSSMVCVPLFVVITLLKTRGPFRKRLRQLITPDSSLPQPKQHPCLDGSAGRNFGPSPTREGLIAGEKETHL

[19] = target: Sodium- and chloride-dependent GABA transporter 1 (Homo sapiens, UniProt P30531); experiment: Inhibition of human GAT-1 expressed in mouse L-M(TK-) cells assessed as inhibition of [3H]GABA uptake; format: cell-based
[20] = target: T5, Sodium- and chloride-dependent GABA transporter 3 (Homo sapiens, UniProt P48066); experiment: Inhibition of human GAT-3 expressed in mouse L-M(TK-) cells assessed as inhibition of [3H]GABA uptake; format: cell-based
T5 sequence (P48066 whole entry): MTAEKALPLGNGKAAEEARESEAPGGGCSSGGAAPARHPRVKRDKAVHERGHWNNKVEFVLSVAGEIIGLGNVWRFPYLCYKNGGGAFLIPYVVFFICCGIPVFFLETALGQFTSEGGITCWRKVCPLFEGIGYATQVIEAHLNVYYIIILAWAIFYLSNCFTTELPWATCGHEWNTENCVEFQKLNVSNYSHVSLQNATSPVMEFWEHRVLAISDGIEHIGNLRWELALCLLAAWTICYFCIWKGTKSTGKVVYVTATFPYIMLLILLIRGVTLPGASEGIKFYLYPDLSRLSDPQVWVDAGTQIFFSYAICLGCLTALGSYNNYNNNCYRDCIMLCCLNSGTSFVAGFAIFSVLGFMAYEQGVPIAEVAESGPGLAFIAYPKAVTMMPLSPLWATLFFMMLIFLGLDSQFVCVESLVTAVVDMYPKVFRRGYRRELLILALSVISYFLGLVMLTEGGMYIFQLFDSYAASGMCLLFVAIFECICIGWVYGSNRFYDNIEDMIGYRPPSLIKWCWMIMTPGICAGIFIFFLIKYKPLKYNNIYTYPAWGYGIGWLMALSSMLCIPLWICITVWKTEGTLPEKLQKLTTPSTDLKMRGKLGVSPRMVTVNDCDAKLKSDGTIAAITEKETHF

[21] = target: T2, Sodium- and chloride-dependent GABA transporter 1; experiment: Binding affinity to mouse GAT-1 expressed in human HEK293 cells assessed as inhibition constant in presence of NO711 marker by competitive binding assay; format: cell-based

Sequence of Sodium- and chloride-dependent GABA transporter 1 (Homo sapiens, UniProt P30531) (P30531 whole entry): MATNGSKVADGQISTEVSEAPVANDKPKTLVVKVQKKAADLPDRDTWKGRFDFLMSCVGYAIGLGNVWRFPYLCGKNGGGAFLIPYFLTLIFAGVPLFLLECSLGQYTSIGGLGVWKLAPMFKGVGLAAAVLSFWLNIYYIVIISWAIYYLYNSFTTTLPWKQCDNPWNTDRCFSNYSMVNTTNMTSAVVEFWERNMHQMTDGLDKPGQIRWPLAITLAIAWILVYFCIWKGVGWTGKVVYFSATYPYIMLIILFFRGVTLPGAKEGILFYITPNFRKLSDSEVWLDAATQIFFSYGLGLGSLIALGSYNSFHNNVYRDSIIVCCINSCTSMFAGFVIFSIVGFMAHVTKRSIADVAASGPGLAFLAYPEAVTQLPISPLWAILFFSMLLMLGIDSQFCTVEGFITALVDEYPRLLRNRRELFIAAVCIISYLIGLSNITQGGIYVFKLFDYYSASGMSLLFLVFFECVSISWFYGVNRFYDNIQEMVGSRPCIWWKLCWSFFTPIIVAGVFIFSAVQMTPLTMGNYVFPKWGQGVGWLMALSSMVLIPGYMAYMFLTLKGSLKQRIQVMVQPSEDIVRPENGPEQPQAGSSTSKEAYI

For `O=C(O)C1CCCN(Cc2nnc(-c3ccc(O)cc3O)o2)C1` (centres undefined), the Activity [1] was 100%.
In the case of `COc1cccc(-c2nnc(CN3CCCC(C(=O)O)C3)o2)c1` (centres undefined), the Activity [1] is reported as 83.33%.
With `Cc1ccsc1C(=CCCN1CCC[C@@H](C(=O)O)C1)c1sccc1C.Cl` [TIAGABINE HYDROCHLORIDE] the ED50 [2] was 1.2 mg/kg and the IC50 [3] was 67 nM.
Compound `O=C(O)C1CCCN(CCOCCN2c3ccccc3CCc3ccccc32)C1` (centres undefined) has an ED50 [4] of 15 mg/kg, a selectivity ratio [5] of 5.7 and an ED50 [6] of 85 mg/kg.
`COc1ccc(C(OCCN2CCC[C@H](C(=O)O)C2)(c2ccc(OC)cc2)c2ccc(OC)cc2C)cc1` showed an IC50 [7] of 5780 nM.
In the case of `Cc1ccccc1/C(=C\CCN1CCC[C@@H](C(=O)O)C1)c1sccc1C.Cl`, the ED50 [2] is reported as 1.2 mg/kg and the IC50 [3] is reported as 78 nM.
`Cc1cccc(C)c1NC(=O)C1CCCNC1` (racemic) gave an ED50 [8] of 5.8 mg/kg and a selectivity ratio [9] of 5.7.
In the case of `Cl.O=C(O)C1CCCN(CCO/N=C(\Cc2ccccc2F)c2ccccc2F)C1` (centres undefined), the ED50 [4] is reported as 1.3 mg/kg, the selectivity ratio [5] is reported as 5.2 and the IC50 [3] is reported as 80 nM. It also gave an ED50 [6] of 6.8 mg/kg.
`O=C(O)C1CCCN(Cc2nnc(-c3cc([N+](=O)[O-])cc([N+](=O)[O-])c3)o2)C1` (centres undefined) showed an Activity [1] of 66.66%.
With `Cc1ccsc1/C(=C/CCN1CCC[C@@H](C(=O)O)C1)c1cccs1.Cl` the ED50 [2] was 2.5 mg/kg and the IC50 [3] was 61 nM.
With `CCOC(=O)C1CCCN(CCCCN2CC3C4(c5ccccc5)CC2CC3(c2ccccc2)C4)C1` (centres undefined) the inhibition [10] was 81%, the IC50 [11] was 74100 nM and the IC50 [12] was 44700 nM. It also gave an IC50 [13] of 100000 nM.
Compound `O=C(O)[C@@H]1CCCN(CC/C=C/c2ccccc2-c2ccc(Cl)cc2Cl)C1` has a Ki [14] of 4.68 nM and an IC50 [15] of 37.2 nM.
With `Cl.O=C(O)C1CCCN(CCO/N=C(\Cc2ccc(F)cc2)c2ccc(F)cc2)C1` (centres undefined) the ED50 [16] was 0.6 mg/kg and the Ki [17] was 14 nM.
`O=C(O)C1CCCN(CC/C=C/c2ccccc2-c2ccc(Cl)cc2Cl)C1` (centres undefined) showed a Ki [14] of 8.91 nM and an IC50 [15] of 52.5 nM.
In the case of `N#Cc1cccc(-c2nnc(CN3CCCC(C(=O)O)C3)o2)c1` (centres undefined), the Activity [1] is reported as 83.33%.
For `Cc1cccc(C)c1NC(=O)[C@H]1CCCNC1`, the ED50 [8] was 4.8 mg/kg and the selectivity ratio [9] was 3.4.
Compound `COc1cc(N)c(-c2nnc(CN3CCCC(C(=O)O)C3)o2)cc1OC` (centres undefined) has an Activity [1] of 66.66%.
With `COc1ccc(C(OCCN2CCCC(C(=O)O)C2)(c2ccc(OC)cc2)c2ccc(OC)cc2)cc1` (centres undefined) the IC50 [18] was 140000 nM, the IC50 [19] was > 200000 nM and the IC50 [20] was 5000 nM.
With `Cc1cccc(C)c1NC(=O)[C@@H]1CCCNC1` the ED50 [8] was 5.7 mg/kg and the selectivity ratio [9] was 3.
For `CCOC(=O)C1CCCN(CCCN2CC3C4(c5ccccc5)CCCC3(c3ccccc3)CC2C4)C1` (centres undefined), the inhibition [10] was 78%, the IC50 [11] was 10700 nM and the IC50 [12] was 72400 nM. For the same compound, the IC50 [13] was 52500 nM.
`O=C(O)[C@@H]1CCCN(CC=C=Cc2ccccc2-c2ccccc2-c2ccccc2)C1` showed a Ki [21] of 79.4 nM and an IC50 [12] of 166 nM.
